Measured values: patent US20030229113A1, “Keratinocyte growth inhibitors and hydroxamic acid derivatives” (priority 2003, published 2003)
Like-named read-outs stand apart in the source and are kept apart here.

Legend:
[1] = system: epidermal hyperplasia induced by TPA; assay: TPA-induced epidermal hyperplasia on dorsal skin of mice; format: in vivo, male BALB/c mice; conditions: ED50; topical in acetone at 1 minute, 24 and 48 hours after TPA; epidermal thickness 72 hours after TPA
Protocol: After backs of male BALB/c mice were shaved, 20 micro 1 of TPA-acetone solution (50 μM) was applied to the dorsal skin surface in an area of ca. 1 cm^2. A volume of 20 micro 1 of test compound-acetone solution was applied to the same area a minute, 24 hours and 48 hours after TPA application (the treated group). In the non-treated group, acetone was applied instead of the test compound. In the control group, acetone was applied instead of TPA and the test compound. The mice were sacrificed, and the skin tissues treated with TPA or the test compound were excised 72 hours after TPA application. Then the tissues were fixed with 10% formalin and embedded in paraffin according to the conventional method. The vertical sections including the center of the TPA- or the test compound-treated area were prepared and they were stained by hematoxylin-eosin. The epidermal thickness was measured using an ocular microscope. The amount of the test compound required for achieving 50% inhibition against the mean epidermal thickness of the non-treated group (ED50) was calculated, wherein the mean epidermal thickness of the non-treated group was 100% and that of the control group was 0%.

[2] = system: solubilizing enzyme of HB-EGF; assay: Inhibition of TPA-stimulated release of HB-EGF from HT-1080 transfectant expressing HB-EGF/alkaline phosphatase fusion protein; format: cell-based, human; conditions: HT-1080 HB-EGF-AP transfectant, TPA 60 nM for 60 min, AP activity in conditioned medium (OD405)
Protocol: Human fibrosarcoma HT-1080 stable transfectant expressing fusion protein of HB-EGF and human placental alkaline phosphatase (AP) were used for following experiments.
The cultured transfectant was treated with Trypsin-EDTA solution, and suspended in Minimum Essential Medium (without phenol red; supplemented with 10% heat-inactivated fetal calf serum; MEM) at the concentration of 1×10^5 cells/ml. Each 0.2 ml of the cell suspension was dispensed into individual wells of 96 well microplate, and incubated overnight in the CO2 incubator (37° C.). After the incubation, the conditioned medium was removed, and the wells were washed once with 0.2 ml of phosphate buffered saline. The cells were treated with 0.1 ml of compound solution [compound solutions in dimethylsulfoxide (DMSO) were diluted 100 times with MEM] for 30 min at 37° C. Then the compound solutions were removed, and cells were treated with 0.2 ml of TPA solution (120 μM) of stock solution was diluted to 60 nM with MEM) containing same concentration of the compound for 60 min at 37° C. The cells treated same procedure without compound were used as control.
After these treatments, each 0.1 ml of conditioned medium was transferred to individual wells of new 96 well microplate and incubated at 65° C. for 10 min to inactivate endogenous alkaline phosphatase. One hundred microliter of substrate solution (1 mg/ml of p-nitrophenyl phosphate in 0.01% magnesium chloride/1 M diethanolamine) for AP was added to each well and incubated for 120 min at room temperature in the dark. The OD405 of each well was measured with microplate reader. The IC50 values of the compounds were calculated from the concentration-inhibition curves.

[3] = system: re-epithelialization of skin wound; assay: Re-epithelialization in mouse skin wound model; format: in vivo, male BALB/c mice; conditions: 50% inhibition of re-epithelialization; applied to 6-mm wound once a day
Protocol: Wound healing model was prepared according to the method described by Tsuboi, et al. [J. Dermatol., 19, 673-675 (1992)]. Briefly, after backs of male BALB/c mice were shaved, two full-thickness round wounds were prepared in parallel to anterior-posterior axis on the back of each mouse using a punch biopsy instrument (6-mm diameter). After the operation, a test compound dissolved or suspended in 0.1M phosphate-buffered saline containing 1.5% sodium carboxymethylcellulose (vehicle) was applied to each wound in a volume of 50 μl/wound. The wounds were left open. From the following day, the compound was applied to each wound once a day for 7 days (the treated group). In the control group, vehicle solution only was applied in the same manner. One day after the last application, mice were sacrificed and skin tissues around the anterior wound were excised. The tissues were fixed with 10% formalin and embedded in paraffin according to the conventional method. The sections were made perpendicularly to the anterior-posterior axis. Keratinocytes in the specimen were stained with an anti-keratin antibody. Measurements of wound size and epidermal migration were performed by using an image-analyzing software. Re-epithelialization was calculated as follows; [formula]
The amount of the test compound required for achieving 50% inhibition against the mean re-epithelialization of the control group (ED50) was calculated.

Row | Structure (SMILES) | Amount of test compound required for 50% suppression of epidermal hyperplasia [1] | IC50 ([2]; read-out: IC50) | ED50 [3] | IC50 [2]
1 | COc1ccc(S(=O)(=O)N2Cc3nccnc3CC2C(=O)NO)cc1 (single isomer, unassigned; (+)) [the compound(13), (+)-N-Hydroxy-6-(4-methoxybenzenesulfonyl)-5,6,7,8-tetrahydropyrido[3,4-b]pyrazine-7-carboxamide] | 350 10^−6 g/cm^2 | 350 nM | 4.5 10^−6 g/0.3 cm^2 | –
2 | COCCCOc1ccc(S(=O)(=O)N2Cc3nccnc3CC2C(=O)NO)cc1 (single isomer, unassigned; (+)) [the compound(14), (+)-N-Hydroxy-6-[4-(3-methoxypropoxy)benzenesulfonyl]-5,6,7,8-tetrahydropyrido[3,4-b]pyrazine-7-carboxamide] | 300 10^−6 g/cm^2 | 53 nM | 9.8 10^−6 g/0.3 cm^2 | –
3 | CCOc1ccc(S(=O)(=O)N2Cc3nccnc3CC2C(=O)NO)cc1 (single isomer, unassigned; (+)) [the compound(15), (+)-N-Hydroxy-6-(4-ethoxybenzenesulfonyl)-5,6,7,8-tetrahydropyrido[3,4-b]pyrazine-7-carboxamide] | 370 10^−6 g/cm^2 | 310 nM | 5.2 10^−6 g/0.3 cm^2 | –
4 | CCCOc1ccc(S(=O)(=O)N2Cc3nccnc3CC2C(=O)NO)cc1 (single isomer, unassigned; (+)) [the compound(16), (+)-N-Hydroxy-6-(4-propoxybenzenesulfonyl)-5,6,7,8-tetrahydropyrido[3,4-b]pyrazine-7-carboxamide] | – | 1000 nM | 11.6 10^−6 g/0.3 cm^2 | –
5 | COCCOc1ccc(S(=O)(=O)N2Cc3nccnc3CC2C(=O)NO)cc1 (single isomer, unassigned; (+)) [the compound(19), (+)-N-Hydroxy-6-[4-(2-methoxyethoxy)benzenesulfonyl]-5,6,7,8-tetrahydropyrido[3,4-b]pyrazine-7-carboxamide] | 200 10^−6 g/cm^2 | 360 nM | 16.6 10^−6 g/0.3 cm^2 | –
6 | O=C(NO)C1Cc2nccnc2CN1S(=O)(=O)c1ccc(Oc2ccccc2)cc1 (single isomer, unassigned; (+)) [the compound(20), (+)-N-Hydroxy-6-(4-phenoxybenzenesulfonyl)-5,6,7,8-tetrahydropyrido[3,4-b]pyrazine-7-carboxamide] | 27 10^−6 g/cm^2 | 410 nM | 9.7 10^−6 g/0.3 cm^2 | –
7 | CSCCCOc1ccc(S(=O)(=O)N2Cc3nccnc3CC2C(=O)NO)cc1 (single isomer, unassigned; (+)) [the compound(21), (+)-N-Hydroxy-6-[4-(3-methylthiopropoxy)benzenesulfonyl]-5,6,7,8-tetrahydropyrido[3,4-b]pyrazine-7-carboxamide] | 230 10^−6 g/cm^2 | – | 11.0 10^−6 g/0.3 cm^2 | 100 nM
8 | CNC(=O)C(Cc1cccc2ccccc12)NC(=O)C(CC(=O)NO)CC(C)C [the compound d, [4-(N-hydroxyamino)-2 (R)-isobutylsuccinyl]-L-3-(1-naphtyl)-alanine-N-methylamide, reference compound] | 40 10^−6 g/cm^2 | 1700 nM | – | –
